Counter-ions that a name gives are not always drawn.

The test addresses NMDA receptor. The experiment in a line: [3H] MK-801 binding test on rat brain membrane specimen. The note with it: read-out: Ki (NMDA receptor affinity). How it is done:
1) Preparation of Specimens of Rat Meninges:
The whole brain was taken out from 30 10-week SD rats (Nippon SLC), and the cerebellum was removed from them. A 0.32 M sucrose solution was added to the part containing the cerebrum, cut in a mixer, and homogenized with a Teflon™ (trademark) homogenizer. This was centrifuged at 2800 rpm and 4° C. for 15 minutes, and the resulting supernatant was again centrifuged at 15000 g and 4° C. for 20 minutes. The pellets were suspended in 50 mM Tris-HCL (pH 7.5) containing 0.08% Triton X-100, and kept statically on ice for 30 minutes, then centrifuged at 15000 g and 4° C. for 20 minutes. The pellets were suspended in 50 mM Tris-HCl (pH 7.5) added thereto, and centrifuged at 15000 g and 4° C. for 20 minutes. 50 mM Tris-HCl (pH 7.5) was again added to the pellets, and centrifuged in the same manner as before. The pellets were suspended in 20 ml of 50 mM Tris-HCl (pH 7.5) added thereto, and homogenized with the Teflon™ (trademark) homogenizer. The membrane specimen was divided into small tubes and stored in a deep freezer (−80° C.). Before use, this was washed twice with 5 mM Tris-HCl (pH 7.5) of five times that of the membrane specimen. Its concentration was controlled at 1 mg protein/ml with 5 mM Tris-HCl (pH 7.5) added to it, and this was used for assay.
2) [^3H] MK-801 Binding Assay:
50 μl of the rat membrane specimen (1 mg protein/ml) was added to a solution of a test compound dissolved in 1 μl of DMSO.
As to `CC1(C)Cc2ccc(Br)cc2C1(C)N` (stereo not drawn) [Example 42, 6-Bromo-1,2,2,-trimethylindan-1-amine hydrochloride], the Ki turned out to be 300 nM.

Regarding `CC1(C)Cc2ccccc2C1(N)c1cccc(O)c1` (stereo not drawn) [Example 21, 1-(3-Hydroxyphenyl)-2,2-dimethylindan-1-amine], the Ki was found to be 100 nM.

Turning to `Cc1ccc2c(c1)C(C)(N)C(C)(C)C2` (stereo not drawn) [Example 36, 1,2,2,6-Tetramethylindan-1-amine hydrochloride], the Ki was 400 nM.

Consider `CCC1(N)c2cccc(C)c2CC1(C)C` (stereo not drawn) [Example 59], for which the inhibitory constant (Ki) came out at 900 nM.

For `CC1(C)Cc2ccc(C(F)(F)F)cc2C1(C)N` (stereo not drawn) [Example 43, 6-Trifluoromethyl-1,2,2-trimethylindan-1-amine hydrochloride], the Ki turned out to be 300 nM.

`CCC1(CC)Cc2ccccc2C1(N)c1ccccc1` (stereo not drawn) [Example 2]: the Ki amounted to 400 nM.

As for `CC1(C)Cc2ccc(F)cc2C1(C)N` (stereo not drawn) [Example 41, 6-Fluoro-1,2,2-trimethylindan-1-amine hydrochloride], the Ki was found to be 800 nM.

Take `CNC1(c2ccccc2)c2ccccc2CC1(C)C` (stereo not drawn) [Example 10, N,2,2-trimethyl-1-phenylindan-1-amine hydrochloride]: the Ki was 400 nM.

For `COc1ccc2c(c1)C(C)(N)C(C)(C)C2` (stereo not drawn) [Example 38, 6-Methoxy-1,2,2-trimethylindan-1-amine hydrochloride], the Ki is 300 nM.

On to `CC1(C)Cc2cccc(F)c2C1(C)N` (stereo not drawn) [Example 48, 7 Fluoro-1,2,2-trimethylindan-1-amine hydrochloride], for which the Ki worked out at 600 nM.

For `CC1(C)Cc2ccccc2C1(C)N` (stereo not drawn) [Example 23, 1,2,2-Trimethylindan-1-amine hydrochloride], the Ki worked out at 900 nM.

As for `CC1(C)Cc2ccccc2C1(N)c1ccc(F)cc1` (stereo not drawn) [Example 17, 1-(4-Fluorophenyl)-2,2-dimethylindan-1-amine monofumarate], the inhibitory constant (Ki) turned out to be 800 nM.

`CC1(C)Cc2ccc(C#N)cc2C1(C)N` (stereo not drawn) [Example 44, 6-Cyano-1,2,2-trimethylindan-1-amine hydrochloride]: the Ki amounted to 600 nM.

For `CCCCC1(N)c2ccccc2CC1(C)C` (stereo not drawn) [Example 61], the Ki was 500 nM.

For the compound `COc1ccccc1C1(N)c2ccccc2CC1(C)C` (stereo not drawn) [Example 18, 1-(2-Methoxyphenyl)-2,2-dimethylindan-1-amine hydrochloride], the inhibition constant (Ki) turned out to be 300 nM.

The record behind these values is US8013018B2, “Aminoindane derivative or salt thereof” (Astellas Pharma Inc., priority 2006, dated 2011).
